The values below come from patent publication US9187486B2 (AMGEN INC., priority 2011, dated 2015).

The target of one test is Pim-2 (Homo sapiens (Human), UniProt Q9P1W9). Nature of the test: Pim-Mn enzyme assay (HTRF, 384-well), Pim-2. It is filed as biochemical. As to conditions: Pim-2 enzyme 0.5 pM, ATP […], read-out: Pim-2-Mn IC50 IP. An excerpt:
(§1) Full-length human cDNAs encoding Pim-1 (MGC ID 3913552) or Pim-2 (IMAGE ID 5092935) were purchased from Invitrogen, Carlsbad, Calif. These cDNAs were used as templates in PCR reactions to produce full-length DNA clones of the PIMs. Oligonucleotide PCR primers for Pim-1 were 5′-[…]-3′ and 5′-[…]-3′. Oligonucleotide PCR primers for Pim-2 were 5′-[…]-3′ and 5′-[…]-3′. PCR products were digested with BclI and EcoRI for Pim-1 and BamHI and EcoRI for Pim-2 and ligated into a modified baculovirus transfer vector (pFastBac 1) cleaved with BamHI and EcoRI. […]
(§2) The frozen cell pellets were thawed by stirring in chilled lysis buffer (0.05 M HEPES, pH 8.0, 0.25 M NaCl, 0.01 M 2-mercaptoethanol, 10% (w/v) glycerol, 0.5% (v/v) protease inhibitor cocktail (Sigma P-8340) at a ratio of 1 L/200 g cells until homogeneous. The thawed suspension was applied to a microfluidizer at 10,000 PSI to disrupt the cells and the whole lysates were clarified by centrifugation at 50,000×g for 90 min, 4° C. Imidazole was added to the clarified lysate to a final concentration of 2.5 mM and the lysate was mixed with 10 mL of Talon resin (Clontech) and the slurry rocked gently overnight at 4° C. […] Fractions were analyzed by SDS-PAGE and those containing the protein of interest were pooled and concentrated. […] The protein eluted at a retention time indicative of it being monomeric and fractions were analyzed by SDS-PAGE. […]

Another test concerns the target Pim-1 (Homo sapiens (Human), UniProt P11309). Kind of test: Pim-Mn enzyme assay (HTRF, 384-well), Pim-1. It counts as biochemical. As to conditions: Pim-1 enzyme 5 pM, ATP […], read-out: Pim-1-Mn IC50 IP.
From the text: as §1, §2
(In general: Time-resolved FRET reads energy transfer from a long-lived donor to a nearby acceptor.)

Sequence of Pim-1 (P11309 whole entry): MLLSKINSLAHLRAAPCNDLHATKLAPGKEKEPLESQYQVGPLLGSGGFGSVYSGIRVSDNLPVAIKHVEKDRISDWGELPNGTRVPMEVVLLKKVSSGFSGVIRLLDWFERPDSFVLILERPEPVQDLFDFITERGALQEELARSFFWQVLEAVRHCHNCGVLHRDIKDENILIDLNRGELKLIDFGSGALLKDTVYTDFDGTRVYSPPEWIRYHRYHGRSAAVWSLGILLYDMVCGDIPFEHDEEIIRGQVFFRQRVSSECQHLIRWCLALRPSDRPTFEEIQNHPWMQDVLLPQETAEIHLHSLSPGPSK
Sequence of Pim-2 (Q9P1W9 whole entry): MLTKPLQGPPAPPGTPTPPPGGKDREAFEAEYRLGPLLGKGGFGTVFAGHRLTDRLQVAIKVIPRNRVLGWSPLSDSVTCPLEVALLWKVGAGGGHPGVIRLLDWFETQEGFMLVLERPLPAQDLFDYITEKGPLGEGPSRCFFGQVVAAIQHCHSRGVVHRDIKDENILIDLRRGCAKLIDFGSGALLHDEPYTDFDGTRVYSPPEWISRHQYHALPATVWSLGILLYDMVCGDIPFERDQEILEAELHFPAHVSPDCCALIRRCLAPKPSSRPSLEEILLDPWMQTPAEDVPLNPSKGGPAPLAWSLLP

For the compound `Fc1cccc(F)c1-c1ccc2cnc(Nc3cnccc3C3=CCNCC3)n2n1` [Example 105, 2-(2,6-Difluorophenyl)-N-(1′,2′,3′,6′-tetrahydro-[4,4′-bipyridin]-3-yl)imidazo[1,5-b]pyridazin-7-amine bis(2,2,2-trifluoroacetate)], the results for the IC50 on Pim-2 and at Pim-1 were 1050 nM and 35 nM, respectively.

For the compound `Cc1noc(C)c1-c1ccncc1Nc1ncc2ccc(-c3c(F)cccc3F)nn12` [Example 106, 2-(2,6-Difluorophenyl)-N-(4-(3,5-dimethylisoxazol-4-yl)pyridin-3-yl)imidazo[1,5-b]pyridazin-7-amine bis(2,2,2-trifluoroacetate)], the IC50 at Pim-2 is over 5000 nM; at Pim-1 it was 221 nM.

A word on the IC50: it is the concentration that gives 50% inhibition.
